Data as given in patent publication US20070213366A1, “Treatment of Synucleinopathies” (priority 2005, published 2007).
Entries after “also recorded” stand apart in the source; their conditions may differ.

How the values were obtained:
human α-synuclein = assay: Immunostaining of α-synuclein inclusions in cortex and hippocampus of α-synuclein transgenic mice; assay type: in vivo
Protocol: Farnesyl transferase inhibitors Zarnestra and OSI-754 were administered to mice of the α-synuclein transgenic line described in Masliah et al. (Masliah et al. “Dopaminergic loss and inclusion body formation in alphα-synuclein mice: implications for neurodegenerative disorders” Science 287(5456): 1265-69, 2000; incorporated herein by reference). Animals from this line have α-synuclein neuronal inclusions in the cortex, hippocampus, and the olfactory bulb (Masliah et al. “Dopaminergic loss and inclusion body formation in alphα-synuclein mice: implications for neurodegenerative disorders” Science 287(5456): 1265-69, 2000; incorporated herein by reference). Transgenic mice were orally administered either FTI in 20% cyclodextrin solution or the same volume of vehicle alone twice a day for 30 or 90 days. In some cases, non-transgenic mice also received vehicle twice a day for 30 to 90 days. At the end of treatment, mice were sacrificed, and the brains removed and hemisected. One hemisphere of each was fixed in 4% paraformaldehyde/PBS (pH 7.4), cryoperserved, then sectioned for histology. The other hemisphere was subdivided into four brain regions, including the cortex and hippocampus, that were homogenized and processed into cytoplasmic and membrane fractions.
Formation of α-synuclein inclusions in the cortex and hippocampus was probed by immunostaining with an antibody for full-length human α-synuclein. Cells positive for human α-synuclein were quantified. […] These regions were also analyzed for ubiquitin-immunoreactive inclusions and by the Campbell Switzer method of silver staining. Ubiquitin is known to be a constituent of Lewy Bodies and in the α-synculein inclusions found in the transgenic mouse line used in the study (Masliah et al. “Dopaminergic loss and inclusion body formation in alphα-synuclein mice: implications for neurodegenerative disorders” Science 287(5456): 1265-69, 2000; incorporated herein by reference). […] Campbell-Switzer staining is a general marker of Lewy Body type inclusions (Uchihara et al. “Silver stainings distinguish Lewy bodies and glial cytoplasmic inclusions: comparison between Gallyas-Braak and Campbell-Switzer methods” Acta Neuropathol. (Berl) 110(3):255-60, 2005; incorporated herein by reference).
(§1) Formation of α-synuclein inclusions in the cortex and hippocampus was probed by immunostaining with an antibody for full-length human α-synuclein. Cells positive for human α-synuclein were quantified.

[1] = test system: Lewy body-like inclusions; assay: Campbell Switzer silver staining of Lewy body-like inclusions in α-synuclein transgenic mice; assay type: in vivo; conditions: 35 mg/kg twice a day for 30 days, vs vehicle
Protocol: (§2) Farnesyl transferase inhibitors Zarnestra and OSI-754 were administered to mice of the α-synuclein transgenic line described in Masliah et al. (Masliah et al. “Dopaminergic loss and inclusion body formation in alphα-synuclein mice: implications for neurodegenerative disorders” Science 287(5456): 1265-69, 2000; incorporated herein by reference). Animals from this line have α-synuclein neuronal inclusions in the cortex, hippocampus, and the olfactory bulb (Masliah et al. “Dopaminergic loss and inclusion body formation in alphα-synuclein mice: implications for neurodegenerative disorders” Science 287(5456): 1265-69, 2000; incorporated herein by reference). Transgenic mice were orally administered either FTI in 20% cyclodextrin solution or the same volume of vehicle alone twice a day for 30 or 90 days. In some cases, non-transgenic mice also received vehicle twice a day for 30 to 90 days. At the end of treatment, mice were sacrificed, and the brains removed and hemisected. […]
as §1, with “quantified. […] These regions were also analyzed for ubiquitin-immunoreactive inclusions and by the Campbell Switzer method of silver staining. […]” for “quantified.”

[2] = test system: ubiquitin-immunoreactive inclusions; assay: Ubiquitin immunohistochemistry in α-synuclein transgenic mice; assay type: in vivo; conditions: 35 mg/kg twice a day for 30 days, vs vehicle
Protocol: as §2
as §1, with “quantified. […] These regions were also analyzed for ubiquitin-immunoreactive inclusions and by the Campbell Switzer method of silver staining. […]” for “quantified.”

farnesylated UCH-L1 = assay: Quantitative Western blot of farnesylated UCH-L1 in cortex membrane fraction of α-synuclein transgenic mice; assay type: in vivo
Protocol: (§3) Farnesyl transferase inhibitors Zarnestra and OSI-754 were administered to mice of the α-synuclein transgenic line described in Masliah et al. (Masliah et al. “Dopaminergic loss and inclusion body formation in alphα-synuclein mice: implications for neurodegenerative disorders” Science 287(5456): 1265-69, 2000; incorporated herein by reference). Animals from this line have α-synuclein neuronal inclusions in the cortex, hippocampus, and the olfactory bulb (Masliah et al. “Dopaminergic loss and inclusion body formation in alphα-synuclein mice: implications for neurodegenerative disorders” Science 287(5456): 1265-69, 2000; incorporated herein by reference). Transgenic mice were orally administered either FTI in 20% cyclodextrin solution or the same volume of vehicle alone twice a day for 30 or 90 days. […]
(§4) Treatment with 35 mg/kg Zarnestra twice a day for 30 days decreased levels of α-synuclein protein in the cortex and the amount of farnesylated UCH-L1 in the cortex of transgenic mice. Total α-synuclein levels were analyzed by a sandwich ELISA assay similar to one previously described (El-Agnaf et al. “Detection of oligomeric forms of alphα-synuclein protein in human plasma as a potential biomarker for Parkinson's disease” FASEB J. 20(3):419-25, 2006; incorporated herein by reference). […] The amount of UCH-L1 was determined by quantitative Western Blot. […]

α-synuclein [3] = assay: Western blot of α-synuclein in SH-SY5Y cells infected with α-synuclein-expressing adenovirus; assay type: cell-based; conditions: normalized against actin
Protocol: (§5) Western Blotting: Following transfer of SDS gels onto NC membrane, all membranes were blocked with 5% non-fat milk in TBST (50 mM Tris-HCl pH7.4, 150 mM NaCl, 0.1% Tween 20), and incubated with primary antibody overnight with 1% BSA in TBST, washed three times with TBST, and incubated with horseradish peroxidase-conjugated secondary antibody for 1 hour (Promega). Bound antibodies were detected using enhanced chemiluminascence (NEM).
Since α-synuclein neurotoxicity is dose-dependent, it follows that accumulation of α-synuclein, caused by UCH-L1 farnesylation, should promote its toxicity. […] These cells express high endogenous levels of UCH-L1. […] The unit of y-axis is 10^5/ml. (F) Cell viability was assessed by the amount of metabolic activity using MTT assay. […] The effect of FTI-277 on the α-synuclein accumulation in the SH-SY5Y infected with α-synuclein-expressing adenovirus were analyzed by Western blotting (B) and the amount of α-synuclein (C) was quantified using NIH Image program and normalized against the amount of actin.

[4] = test system: primary dopaminergic cultures; assay: α-synuclein toxicity in primary dopaminergic cultures; assay type: cell-based
UCH-L1 [5] = assay: Total amount and turnover (pulse-chase) of UCH-L1 in SH-SY5Y cells; assay type: cell-based
[6] = test system: SH-SY5Y cells overexpressing α-synuclein; assay: Viability (Trypan blue, MTT) of SH-SY5Y cells infected by α-synuclein-expressing adenovirus; assay type: cell-based
Protocol: Viral Infection: Viral infection and MTT assay in SH-SY5Y cells: The viruses were amplified and purified according to the published procedure. SH-SY5Y cells were grown on 100 mm petri-dishes and induced with 100 nM retinoic acid for 3-5 days before the virus infection with M.I.O at 75. Viruses were diluted with DPBS to desired M.I.O. After four hours of incubation, 10 ml growth medium was added. On the second day, cells were splitted into 96-well plates and treated with compounds for next 48 hours. The growth medium in each well was replaced with growth medium with 5 ug/ml MTT. Medium was removed after three hours incubation, and 200 ul isopropyl (0.04N HCl) was added into each well. The signal was read at 570 nm.
Viable cell counting: At stated time poins, SH-SY5Y cells were trypsinized with 100 ul trypsin-EDTA for 1 minute and neutralized with 400 ul growth medium. Cell suspension was made up by mixing 0.2 ml of cells in growth medium, 0.3 ml of HBSS and 0.5 ml of 0.4% Trypan Blue solution. Viable cell numbers were counted by standard cell counting chamber.
Since α-synuclein neurotoxicity is dose-dependent, it follows that accumulation of α-synuclein, caused by UCH-L1 farnesylation, should promote its toxicity. […] These cells express high endogenous levels of UCH-L1. […] The unit of y-axis is 10^5/ml. (F) Cell viability was assessed by the amount of metabolic activity using MTT assay. […]

UCH-L1 [7] = assay: 2D electrophoresis and Western blot of membrane-bound and cytosolic UCH-L1 in SH-SY5Y cells; assay type: cell-based; conditions: compared to DMSO
Protocol: Membrane fractionation: Cells were harvested by scraping and washed with PBS. Cell pellet was suspended in lysis buffer (50 mM Tris-HCl, 1 mM EDTA) supplemented with protease inhibitor cocktail (Sigma) and homogenized by passing through 26G needles 10 times. Suspension was clarified by spinning at 600 g for 5 minutes. Clarified suspension was ultracentrifuged at 100,000 g for 2 hours and separated into membrane and cytosol. Membrane fraction washed with washing buffer (50 mM Tris-HCl, 1 mM EDTA 1 M NaCl), and pelleted each time with bench-top centrifuge.
2D electrophoresis: For the isolation of total cellular protein, cultured SH-SY5Y cells maintained as described above were rinsed with ice-cold PBS. Cells were lysed in 1 ml dSDS buffer (50 mM Tris-HCl, pH 8.0 0.1% SDS) supplemented with protease inhibitor cocktail. Lysates were boiled for 3 min, and were treated with Dnase and Rnase as described. […]
as §5, with “(NEM). […]” for “(NEM).”

α-synuclein [8] = assay: α-synuclein degradation/accumulation assay in COS-7 cells; assay type: cell-based
From the text: Plasmids: C220S cDNA was generated by PCR site-specific mutagenesis. For the PCR, the 5′ primer is uchforw SEQ ID NO: 1 ([…]), and 3′ primer is uchc220s SEQ ID NO:2 (CTAAGA […]). Wt UCH-L1 served as the template. The PCR fragment was inserted into pcDNA vector. For S 18YC220S mutant, S18Y UCH-L1 served as the template in PCR. For the FLAG tagged UCH-L1, the 5′ primer is FLAGuchforw SEQ ID NO: 3 ([…] CGATGGAG), and the 3′ primer is uchrev SEQ ID NO: 4 ([…]). Wt UCH-L1 or C220S served as the template. PCR fragment was purified and inserted into pcDNA vector. For the FLAG tagged UCH-L3, the 5′ primer is L3HindIII SEQ ID NO: 5 (CTAAAGCTTATGGACTAC […]), the 3′primer is L3XhoISAA SEQ ID NO: 6 ([…]). For the UCH-L3 CKAA variant, the 5′ primer is L3 HindIII and the 3′ primer is L3XhoICKAA SEQ ID NO: 7 ([…]). α-synuclein degradation assay: Lipofectamine 2000 was used to transfect COS-7 cells according to the Invitrogen protocol. Transfected cells were cultured at 37° C. for 48 hours before being treated with 35 μM lactacystin or DMSO. After 24 hours of incubation, the cells were lysed with Tris buffer (50 mM Tris, 2% SDS, 0.1% NP-40), and subjected to SDS-PAGE, followed by quantitative Western blotting.
In order to isolate the latter possibility, a mutant form of UCH-L3 was constructed in which the UCH-L1 farnesylation sequence was added to the UCH-L3 C-terminus. […]

α-synuclein [9] = assay: Sandwich ELISA of total α-synuclein in cortex fractions of α-synuclein transgenic mice; assay type: in vivo; conditions: 45 mg/kg twice a day for 30 days, vs vehicle-treated transgenic mice
Protocol: as §3, §4

[10] = 35 mg/kg twice a day for 30 days, vs vehicle
[11] = 9 mg/kg twice a day for 90 days, vs vehicle
[12] = 45 mg/kg twice a day for 90 days, vs vehicle

SMILES: Cn1cncc1[C@@](N)(c1ccc(Cl)cc1)c1ccc2c(c1)c(-c1cccc(Cl)c1)cc(=O)n2C [Zarnestra]
- α-synuclein-positive cells per mm, cortex (human α-synuclein; [10]): significantly fewer
- α-synuclein-positive cells per mm, hippocampus (human α-synuclein; [10]): significantly fewer
- inclusions vs vehicle (human α-synuclein; transgenic mice, 35 mg/kg orally twice a day for 30 days): fewer inclusions
- Campbell-Switzer stained inclusions [1]: fewer inclusions
- ubiquitin-immunoreactive inclusions [2]: fewer ubiquitin-immuoreactive inclusions
- amount of farnesylated UCH-L1 in the cortex (farnesylated UCH-L1; 35 mg/kg twice a day for 30 days, membrane fraction): decreased the amount of farnesylated UCH-L1 in transgenic mice to levels similar to non-transgenic mice

SMILES: COC(=O)[C@H](CCSC)NC(=O)c1ccc(NC[C@@H](N)CS)cc1-c1ccccc1 [FTI-277]
- amount of α-synuclein (α-synuclein [3]): reducing the amount of α-synuclein accumulation; also recorded: reduced the amount of α-synuclein
- α-synuclein toxicity [4]: inhibit α-synuclein toxicity
- total amount of UCH-L1 (UCH-L1 [5]): reduced the total amount of UCH-L1
- rate of turnover of UCH-L1 (UCH-L1 [5]; pulse-chase experiment not shown): increased its rate of turnover
- α-synuclein toxicity / loss of cells ([6]; SH-SY5Y cells overexpressing α-synuclein via adenovirus, compared to DMSO): inhibits synuclein toxicity; also recorded: rescued α-synuclein toxicity; also recorded: significantly decreased loss of cells
- neuroprotective effect of FTI-277 on co-administration of the small-molecule UCH-L1 inhibitor ([6]; SH-SY5Y cells overexpressing α-synuclein, not shown): eliminated
- amount of cytosolic UCH-L1 (UCH-L1 [7]): without affecting
- amount of membrane bound UCH-L1 (UCH-L1 [7]): significant decrease; also recorded: decreased the amount of the membrane-associated species; also recorded: reducing the amount of membrane-associated protein
- synuclein level (α-synuclein [8]; COS-7 cells): lowers synuclein level

SMILES: C#Cc1cccc(-c2cc(=O)n(C)c3ccc(C(O)(c4ccc(Cl)cc4)c4cncn4C)cc23)c1 (stereo not shown) [OSI-754]
- inclusions vs vehicle (human α-synuclein; 9 mg/kg twice a day for 90 days): fewer inclusions
- α-synuclein-positive cells per mm^2, cortex (human α-synuclein; [11]): fewer α-synuclein-positive cells
- α-synuclein-positive cells per mm^2, hippocampus (human α-synuclein; [11]): fewer α-synuclein-positive cells
- inclusions vs vehicle (human α-synuclein; 45 mg/kg twice a day for 90 days): fewer inclusions
- α-synuclein-positive cells per mm^2, cortex (human α-synuclein; [12]): fewer α-synuclein-positive cells
- α-synuclein-positive cells per mm^2, hippocampus (human α-synuclein; [12]): fewer α-synuclein-positive cells
- amount of farnesylated UCH-L1 in the cortex (farnesylated UCH-L1; 45 mg/kg twice a day for 30 days, normalized to actin): decreased the amount of farnesylated UCH-L1
- α-synuclein protein levels, cortex cytoplasmic fraction (α-synuclein [9]): lower α-synuclein protein levels
- α-synuclein protein levels, cortex membrane fraction (α-synuclein [9]): lower α-synuclein protein levels

SMILES: CC(=O)N[C@@H](CSC(=O)[C@]1([C@@H](O)C(C)C)NC(=O)[C@H](C)[C@@H]1O)C(=O)O [lactacystin]
- accumulation of α-synuclein (α-synuclein [8]; transfected COS-7 cells, 16 kDa α-synuclein normalized against actin, sets the scale): 100%
